Counter-ions that a name gives are not always drawn.
Target: T1, Nav1.7 (or SCN9A) channel (Homo sapiens, UniProt Q15858)
T1 construct: expressed in transfected cells
Assay: Nav1.7 (hSCN9A) block in HEK cells, PatchXpress 7000 automated electrophysiology, estimated IC50 (EIC50)
Format: cell-based
Conditions: PatchXpress assay; HEK cells stably transfected with hSCN9A, voltage-clamped at V1/2 of inactivation
Procedure: The ability of the compounds of formula (I) to block the Nav1.7 (or SCN9A) channel were measured using the assay described below.
Human Embryonic Kidney (HEK) cells were transfected with an hSCN9A construct using lipofectamine reagent (Invitrogen), using standard techniques. Cells stably expressing the hSCN9A constructs were identified by their resistance to G-418 (400 μg/ml). Clones were screened for expression using the whole-cell voltage-clamp technique.
HEK cells stably transfected with hSCN9A were maintained in DMEM medium supplemented with 10% heat-inactivated fetal bovine serum and 400 μg/ml G-418 in an incubator at 37° C. with a humidified atmosphere of 10% CO2. For HTS, cells were harvested from flasks by trypsinization and replated in an appropriate multi-well plate (typically 96 or 384 wells/plate) such that confluence would be achieved within 24 hours of plating. For electrophysiological studies, cells were removed from the culture flask by brief trypsinization and re-plated at low density onto glass cover slips. Cells were typically used for electrophysiological experiments within 24 to 72 hours after plating.
HEK cells stably transfected with hSCN9A were viewed under Hoffman contrast optics and placed in front of an array of flow pipes emitting either control or compound-containing extracellular solutions. All compounds were dissolved in dimethyl sulfoxide to make 10 mM stock solutions, which were then diluted into extracellular solution to attain the final concentrations desired. […] The voltage-dependence of inactivation was determined by applying a series of depolarizing prepulses (8 sec long in 10 mV increments) from a negative holding potential. The voltage was then immediately stepped to 0 mV to assess the magnitude of the sodium current. Currents elicited at 0 mV were plotted as a function of prepulse potential to allow estimation of the voltage at which 50% of the channels were inactivated (midpoint of inactivation or V1/2). Compounds were tested for their ability to inhibit hSCN9A sodium channels by activating the channel with a 20 msec voltage step to 0 mV following an 8 second conditioning prepulse to the empirically determined V1/2. Compound effect (% inhibition) was determined by difference in current amplitude before and after application of test compounds. For ease of comparison, “estimated IC-50” (EIC50) values were calculated from single point electrophysiology data by the following equation, (tested concentration, uM) X (100-% inhibition/% inhibition). Inhibition values <20% and >80% were excluded from the calculation.
Electrophysiological assays were conducted with PatchXpress 7000 hardware and associated software (Molecular Devices Corp). All assay buffers and solutions were identical to those used in conventional whole-cell voltage clamp experiments described above. hSCN9A cells were grown as above to 50%-80% confluency and harvested by trypsinization. Trypsinized cells were washed and resuspended in extracellular buffer at a concentration of 1×10^6 cells/ml. The onboard liquid handling facility of the PatchXpress was used for dispensing cells and application of test compounds. Determination of the voltage midpoint of inactivation was as described for conventional whole-cell recordings. Cells were then voltage-clamped to the empirically determined V1/2 and current was activated by a 20 msec voltage step to 0 mV.
Compounds of the Examples were tested in the assays described above and found to have the Nav1.7 EIC50 (μM) values specified in the table below. All data are derived from the PatchXpress assay unless explicitly stated otherwise.

T1 sequence (Q15858 whole entry): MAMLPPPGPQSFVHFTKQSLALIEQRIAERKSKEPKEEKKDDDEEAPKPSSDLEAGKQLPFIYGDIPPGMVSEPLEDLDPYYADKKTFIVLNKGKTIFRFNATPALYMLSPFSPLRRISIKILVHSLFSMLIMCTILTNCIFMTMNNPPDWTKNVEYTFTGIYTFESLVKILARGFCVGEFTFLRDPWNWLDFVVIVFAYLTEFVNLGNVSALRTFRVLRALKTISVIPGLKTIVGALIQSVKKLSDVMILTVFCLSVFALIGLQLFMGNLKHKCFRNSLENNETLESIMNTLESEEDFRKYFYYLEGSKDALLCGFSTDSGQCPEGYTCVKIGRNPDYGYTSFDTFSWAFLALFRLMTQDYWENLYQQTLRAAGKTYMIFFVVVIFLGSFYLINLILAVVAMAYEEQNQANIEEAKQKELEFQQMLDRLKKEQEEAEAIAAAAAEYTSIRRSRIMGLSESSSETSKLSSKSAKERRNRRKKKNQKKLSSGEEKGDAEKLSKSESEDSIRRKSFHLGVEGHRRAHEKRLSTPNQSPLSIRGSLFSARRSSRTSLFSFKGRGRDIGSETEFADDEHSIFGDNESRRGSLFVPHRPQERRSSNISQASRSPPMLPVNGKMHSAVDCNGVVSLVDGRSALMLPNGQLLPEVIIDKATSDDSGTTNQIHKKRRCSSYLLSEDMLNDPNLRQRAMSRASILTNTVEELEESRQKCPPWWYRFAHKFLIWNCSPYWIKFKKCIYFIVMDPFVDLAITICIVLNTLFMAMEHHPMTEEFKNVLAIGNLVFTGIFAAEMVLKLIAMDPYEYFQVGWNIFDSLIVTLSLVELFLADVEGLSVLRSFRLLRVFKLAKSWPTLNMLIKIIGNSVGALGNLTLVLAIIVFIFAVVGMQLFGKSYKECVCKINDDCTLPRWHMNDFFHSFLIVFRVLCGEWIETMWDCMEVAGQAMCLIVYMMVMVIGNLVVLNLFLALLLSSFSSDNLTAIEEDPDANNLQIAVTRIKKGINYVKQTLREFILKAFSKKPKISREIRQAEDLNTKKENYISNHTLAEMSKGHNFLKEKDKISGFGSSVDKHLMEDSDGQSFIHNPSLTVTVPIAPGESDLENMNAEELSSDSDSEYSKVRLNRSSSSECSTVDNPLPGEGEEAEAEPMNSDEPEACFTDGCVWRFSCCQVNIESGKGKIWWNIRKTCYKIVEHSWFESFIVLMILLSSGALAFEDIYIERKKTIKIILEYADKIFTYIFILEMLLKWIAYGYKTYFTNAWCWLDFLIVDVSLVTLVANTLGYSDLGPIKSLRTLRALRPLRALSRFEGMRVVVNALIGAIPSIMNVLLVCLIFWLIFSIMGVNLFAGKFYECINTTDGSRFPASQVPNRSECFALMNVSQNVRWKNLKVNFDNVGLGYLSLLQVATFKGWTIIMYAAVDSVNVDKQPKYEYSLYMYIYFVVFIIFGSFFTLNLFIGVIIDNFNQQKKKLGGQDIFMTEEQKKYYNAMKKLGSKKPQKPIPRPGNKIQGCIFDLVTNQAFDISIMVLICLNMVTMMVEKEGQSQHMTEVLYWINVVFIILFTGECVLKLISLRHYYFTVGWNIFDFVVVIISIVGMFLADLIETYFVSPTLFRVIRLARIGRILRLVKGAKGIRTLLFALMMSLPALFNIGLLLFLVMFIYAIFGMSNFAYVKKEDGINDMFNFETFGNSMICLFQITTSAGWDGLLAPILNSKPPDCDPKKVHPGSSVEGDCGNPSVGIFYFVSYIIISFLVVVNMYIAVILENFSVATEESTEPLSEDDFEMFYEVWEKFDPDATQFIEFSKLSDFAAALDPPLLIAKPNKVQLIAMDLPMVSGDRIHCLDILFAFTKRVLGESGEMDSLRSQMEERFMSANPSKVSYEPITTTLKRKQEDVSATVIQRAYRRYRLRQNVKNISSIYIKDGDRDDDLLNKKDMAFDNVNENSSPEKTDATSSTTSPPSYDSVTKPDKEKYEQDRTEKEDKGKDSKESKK

`[2H]C([2H])([2H])C([2H])(Oc1ncc(Oc2cc(F)c(C(=O)NS(C)(=O)=O)cc2Cl)cc1Cl)C([2H])([2H])[2H]` (single isomer, unassigned) [Example 42, 5-chloro-4-({5-chloro-6-[d7-propan-2-yloxy]pyridin-3-yl}oxy)-2-fluoro-N-(methylsulfonyl)benzamide] showed an IC50 of 31 nM.
For `[2H]C(C)(C)Oc1ncc(Oc2cc(F)c(C(=O)NS(C)(=O)=O)cc2Cl)cc1Cl` (single isomer, unassigned) [Example 46, 5-chloro-4-({5-chloro-6-[2-d1-propan-2-yloxy]pyridin-3-yl}oxy)-2-fluoro-N-(methylsulfonyl)benzamide], the IC50 was 110 nM.
Molecule `CC(C)COc1ncc(Oc2ccc(C(=O)NS(C)(=O)=O)cc2C#N)cc1Cl` [Example 1, 4-[(5-Chloro-6-isobutoxypyridin-3-yl)oxy]-3-cyano-N-(methylsulfonyl)benzamide] has an IC50 of 160 nM.
For `CS(=O)(=O)NC(=O)c1cc(F)c(Oc2cnc(OCC3CC(F)(F)C3)c(Cl)c2)cc1F` [Example 2, 4-({5-Chloro-6-[(3,3-difluorocyclobutyl)methoxy]pyridin-3-yl}oxy)-2,5-difluoro-N-(methylsulfonyl)benzamide], the IC50 was 91 nM.
`CC(C)Oc1ncc(Oc2cc(F)c(C(=O)NS(C)(=O)=O)cc2F)cc1Cl` [Example 3, 4-[(5-Chloro-6-isopropoxypyridin-3-yl)oxy]-2,5-difluoro-N-(methylsulfonyl)benzamide] was tested, and the IC50 was 41 nM.
With `CS(=O)(=O)NC(=O)c1ccc(Oc2cnc(N3CCCCC3)nc2)c(Cl)c1` [Example 4, 3-Chloro-N-(methylsulfonyl)-4-[(2-piperidin-1-ylpyrimidin-5-yl)oxy]benzamide] the IC50 was 300 nM.
`CC(C)(F)c1ncc(Oc2cc(F)c(C(=O)NS(C)(=O)=O)cc2Cl)cc1Cl` [Example 7, 5-Chloro-4-{[5-chloro-6-(1-fluoro-1-methylethyl)pyridin-3-yl]oxy}-2-fluoro-N-(methylsulfonyl)benzamide] showed an IC50 of 290 nM.
Work on `CC(C)Oc1ncc(Oc2cc(F)c(C(=O)NS(C)(=O)=O)cc2Cl)cc1C#N` [Example 8, 5-Chloro-4-[(5-cyano-6-isopropoxypyridin-3-yl)oxy]-2-fluoro-N-(methylsulfonyl)benzamide] yielded an IC50 of 240 nM.
`CS(=O)(=O)NC(=O)c1ccc(Oc2cnc(C(F)(F)F)c(Cl)c2)cc1` [Example 9, 4-{[5-Chloro-6-(trifluoromethyl)pyridin-3-yl]oxy}-N-(methylsulfonyl)benzamide] gave an IC50 of over 1000 nM.
With `CS(=O)(=O)NC(=O)c1cc(Cl)c(Oc2cnc(OC3COC3)c(Cl)c2)cc1F` [Example 10, 5-Chloro-4-{[5-chloro-6-(oxetan-3-yloxy)pyridin-3-yl]oxy}-2-fluoro-N-(methylsulfonyl)benzamide] the IC50 was 900 nM.
`CC(Oc1ncc(Oc2cc(F)c(C(=O)NS(C)(=O)=O)cc2F)cc1Cl)C(F)(F)F` (stereo not drawn) [Example 12, 4-{[5-Chloro-6-(2,2,2-trifluoro-1-methylethoxy)pyridin-3-yl]oxy}-2,5-difluoro-N-(methylsulfonyl)benzamide] showed an IC50 of 120 nM.
`CS(=O)(=O)NC(=O)c1cc(Cl)c(Oc2cnc(OCCC(F)(F)F)c(Cl)c2)cc1F` [Example 13, 5-Chloro-4-{[5-chloro-6-(3,3,3-trifluoropropoxy)pyridin-3-yl]oxy}-2-fluoro-N-(methylsulfonyl)benzamide] gave an IC50 of 50 nM.
`CC(C)COc1ncc(Oc2ccc(C(=O)NS(C)(=O)=O)cc2)cc1Cl` [Example 14, 4-[(5-Chloro-6-isobutoxypyridin-3-yl)oxy]-N-(methylsulfonyl)benzamide] gave an IC50 of 140 nM.
`COc1ncc(Oc2cc(F)c(C(=O)NS(=O)(=O)C3CC3)cc2F)cc1Cl` [Example 15, 4-(5-Chloro-6-methoxypyridin-3-yloxy)-N-(cyclopropylsulfonyl)-2,5-difluorobenzamide diethylamine salt] was tested, and the IC50 was 4600 nM.
Work on `CS(=O)(=O)NC(=O)c1cc(F)c(Oc2cnc(OC3CCC3)c(Cl)c2)cc1F` [Example 16, 4-(5-Chloro-6-cyclobutoxypyridin-3-yloxy)-2,5-difluoro-N-(methylsulfonyl)benzamide] yielded an IC50 of 130 nM.
For `CCC(C)S(=O)(=O)NC(=O)c1cc(F)c(Oc2cnc(OC)c(Cl)c2)cc1F` (stereo not drawn) [Example 18, N-(sec-butylsulfonyl)-4-[(5-chloro-6-methoxypyridin-3-yl)oxy]-2,5-difluorobenzamide], the IC50 was 970 nM.
`CC(C)n1ncc2cc(Oc3cc(F)c(C(=O)NS(C)(=O)=O)cc3Cl)ccc21` [Example 20, 5-Chloro-2-fluoro-4-[(1-isopropyl-1H-indazol-5-yl)oxy]-N-(methylsulfonyl)benzamide] was tested, and the IC50 was over 3000 nM.
With `CS(=O)(=O)NC(=O)c1cc(Cl)c(Oc2cnc(C3CC3)c(Cl)c2)cc1F` [Example 21, 5-chloro-4-[(5-chloro-6-cyclopropylpyridin-3-yl)oxy]-2-fluoro-N-(methanesulfonyl)benzamide] the IC50 was 30 nM.
With `CS(=O)(=O)NC(=O)c1cc(Cl)c(Oc2cnc(OCC(F)(F)C(F)F)c(Cl)c2)cc1F` [Example 22, 5-chloro-4-{[5-chloro-6-(2,2,3,3-tetrafluoropropoxy)pyridin-3-yl]oxy}-2-fluoro-N-(methanesulfonyl)benzamide] the IC50 was 19 nM.
In the case of `CC(C)COc1ncc(Oc2cc(F)c(C(=O)NS(C)(=O)=O)cc2F)cc1Cl` [Example 23, 4-[(5-chloro-6-isobutoxypyridin-3-yl)oxy]-2,5-difluoro-N-(methylsulfonyl)benzamide], the IC50 is reported as 39 nM.
Work on `CS(=O)(=O)NC(=O)c1cc(F)c(Oc2cnc(OC3CCOCC3)c(Cl)c2)cc1F` [Example 24, 4-{[5-chloro-6-(tetrahydro-2H-pyran-4-yloxy)pyridin-3-yl]oxy}-2,5-difluoro-N-(methylsulfonyl)benzamide] yielded an IC50 of 780 nM.
Molecule `COc1ncc(Oc2cc(F)c(C(=O)NS(C)(=O)=O)cc2F)cc1Cl` [Example 25, 4-[(5-chloro-6-methoxypyridin-3-yl)oxy]-2,5-difluoro-N-(methylsulfonyl)benzamide] has an IC50 of 9800 nM.
In the case of `CS(=O)(=O)NC(=O)c1cc(F)c(Oc2cnc(C(F)(F)F)nc2)cc1F` [Example 26, 2,5-difluoro-N-(methylsulfonyl)-4-{[2-(trifluoromethyl)pyrimidin-5-yl]oxy}benzamide], the IC50 is reported as over 10000 nM.
`CS(=O)(=O)NC(=O)c1cc(F)c(Oc2cnc(OCC(F)(F)F)c(Cl)c2)cc1F` [Example 27, 4-{[5-chloro-6-(2,2,2-trifluoroethoxy)pyridin-3-yl]oxy}-2,5-difluoro-N-(methylsulfonyl)benzamide] gave an IC50 of 220 nM.
Molecule `CC1(COc2ncc(Oc3cc(F)c(C(=O)NS(C)(=O)=O)cc3F)cc2Cl)CC1` [Example 28, 4-({5-chloro-6-[(1-methylcyclopropyl)methoxy]pyridin-3-yl}oxy)-2,5-difluoro-N-(methylsulfonyl)benzamide] has an IC50 of 33 nM.
For `CC(C)Oc1ncc(Oc2cc(F)c(C(=O)NS(C)(=O)=O)c(F)c2F)cc1Cl` [Example 29, 4-[(5-chloro-6-isopropoxypyridin-3-yl)oxy]-2,3,6-trifluoro-N-(methylsulfonyl)benzamide], the IC50 was 2300 nM.
For `CN1CCC(Oc2ncc(Oc3cc(F)c(C(=O)NS(C)(=O)=O)cc3Cl)cc2Cl)CC1` [Example 30, 5-chloro-4-({5-chloro-6-[(1-methylpiperidin-4-yl)oxy]pyridin-3-yl}oxy)-2-fluoro-N-(methylsulfonyl)benzamide], the IC50 was 7600 nM.

— patent publication US8592629B2, “Sulfonamide derivatives as Nav 1.7 inhibitors” (Pfizer Limited, priority 2010, dated 2013)
